Results on four compounds are retold here after ChEMBL document CHEMBL1146723, “Synthesis of benzophenone oxime analogues as inhibitor of secretory phospholipase A(2) with anti-inflammatory activity” (2004).

The target in assay [1] is Phospholipase A2, major isoenzyme (Sus scrofa) (UniProt P00592). Nature of the assay: (§1) Percentage inhibitory activity against Phospholipase A2 isolated from venom of Trimeresurus malabaricus. The settings on record: concentration not given here.
Assay [2] shares this target. Briefly: (§2) Percentage inhibitory activity against Phospholipase A2 isolated from venom of Naja naja. The settings on record: concentration not given here.
Assay [3] shares this target. Briefly: (§3) Percentage inhibitory activity against Phospholipase A2 isolated from venom of Vipera russelli. The settings on record: Daboia russellii; concentration not given here.
For the next assay, the system named is Mus musculus. Briefly: Antiinflammatory activity was evaluated for the increase in weight due to edema was calculated as edema ratio. Type of assay: functional.
The test system of assay [4] is Trimeresurus malabaricus. The assay is described as §1. The settings on record: concentration not given here.
The next assay concerns Naja naja. The assay is described as §2. The settings on record: concentration not given here.
The subject of the next assay is Daboia russellii. Described as §3. The settings on record: concentration not given here.
For assay [5], the system named is Trimeresurus malabaricus. Nature of the assay: Percentage inhibitory activity against Phospholipase A2 isolated from venom of Trimeresurus malabaricus; NI = No inhibition.

Where “and” joins values, the source holds several entries; their conditions need not be identical. Identical values can stand only once. Calls of active or inactive are those of the source. The calls are words filed in the database; no cut-off is given here.

Sequence of Phospholipase A2, major isoenzyme (Sus scrofa) (P00592 23-146 limits assumed): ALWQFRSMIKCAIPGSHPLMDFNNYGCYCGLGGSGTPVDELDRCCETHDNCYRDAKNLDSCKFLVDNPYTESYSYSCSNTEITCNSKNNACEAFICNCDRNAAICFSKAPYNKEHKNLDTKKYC

Consider `COc1ccc(/C(=N/O)c2cccc(Cl)c2)cc1OC`, for which the inhibition – broadly, how much of the control response was suppressed – in assay [1] came to 72.4%; in assay [2], 90.2%; in assay [3] it was 85.3%. In addition, the Edema ratio with Mus musculus is 101 and 109 and 105 and 106 and 107.
On to `Cc1cccc(/C(=N/O)c2ccccc2)c1`, for which the inhibition amounted to 81.6% in the assay on Trimeresurus malabaricus [4], 82.9% in the assay with Naja naja and 79.2% in the assay on Daboia russellii. Moreover, the Edema ratio in the assay on Mus musculus is 102 and 110 and 101 and 103 and 109.
Regarding `COc1cccc(C(=NO)c2cccc(OC)c2)c1`, the results for the inhibition in the assay on Naja naja and in the assay with Daboia russellii were 36.9% and 58.7%, respectively. For the same compound, in the assay with Trimeresurus malabaricus [5], the inhibition result is “inactive”. Besides, the Edema ratio with Mus musculus is 136 and 142 and 181 and 147 and 149.
Take `COc1ccc(/C(=N/O)c2ccccc2)cc1`: the inhibition with Naja naja is 42.4%; in the assay on Daboia russellii, 29.9%. In the assay on Trimeresurus malabaricus [5], the inhibition result is “inactive”. In addition, in the assay on Mus musculus, the Edema ratio was 180 and 142 and 183 and 147 and 151.
